Results reported in ChEMBL document CHEMBL1201862, “PubChem BioAssay data set” (2004).
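Test compounds were applied to cells in 96-well plates for 48 hours at 5 doses. GI50 = concentration required for 50% inhibition of growth.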 The source made the active and inactive calls. No stated cut-off is given here; in the data, active = GI50 up to about 1.1 µM and inactive = higher.

Assays:
Assay in all cases: NCI anticancer screen, dose series, 48 h
[1] = system: SF-539
[2] = system: MDA-N
[3] = system: SK-MEL-28
[4] = system: SR
[5] = system: CAKI-1
[6] = system: Hs-578T
[7] = system: M14
[8] = system: ACHN
[9] = system: COLO 205
[10] = system: SW-620
[11] = system: NCI/ADR-RES
[12] = system: UACC-257
[13] = system: SK-MEL-5
[14] = system: PC-3
[15] = system: A549
[16] = system: MCF7
[17] = system: NCI-H522
[18] = system: 786-0
[19] = system: OVCAR-4
[20] = system: HOP-92

| SMILES | GI50 [1] | GI50 [2] | GI50 [3] | GI50 [4] | GI50 [5] | GI50 [6] | GI50 [7] | GI50 [8] | GI50 [9] | GI50 [10] | GI50 [11] | GI50 [12] | GI50 [13] | GI50 [14] | GI50 [15] | GI50 [16] | GI50 [17] | GI50 [18] | GI50 [19] | GI50 [20] |
| --- | --- | --- | --- | --- | --- | --- | --- | --- | --- | --- | --- | --- | --- | --- | --- | --- | --- | --- | --- | --- |
| O=CNc1ncn[nH]1 | > 100 µM (inactive) | > 100 µM (inactive) | > 100 µM (inactive) | > 100 µM (inactive) | > 100 µM (inactive) | > 100 µM (inactive) | > 100 µM (inactive) | > 100 µM (inactive) | > 100 µM (inactive) | > 100 µM (inactive) | > 100 µM (inactive) | > 100 µM (inactive) | > 100 µM (inactive) | > 100 µM (inactive) | > 100 µM (inactive) | > 100 µM (inactive) | > 100 µM (inactive) | > 100 µM (inactive) | > 100 µM (inactive) | – |
| COC(=O)[C@]1(C)CCC[C@@]2(C)[C@@H]3C[C@@H]4[C@H]5C[C@@]3(CC[C@@H]21)C[C@@]45C | 22.1 µM (inactive) | 17.9 µM (inactive) | 17.5 µM (inactive) | – | 16.4 µM (inactive) | 20.5 µM (inactive) | 20.7 µM (inactive) | 15.8 µM (inactive) | 20.5 µM (inactive) | 24.3 µM (inactive) | 15.7 µM (inactive) | 15.4 µM (inactive) | 17.2 µM (inactive) | 15.2 µM (inactive) | 14.1 µM (inactive) | 14.9 µM (inactive) | 16.8 µM (inactive) | 16.1 µM (inactive) | 13.8 µM (inactive) | 15.2 µM (inactive) |
| COCCN1C(=O)C2c3[nH]c4ccccc4c3C3CCC(C(C)(C)C)CC3C2C1=O (stereo not drawn) | 19.1 µM (inactive) | 14.5 µM (inactive) | 17.5 µM (inactive) | 11.7 µM (inactive) | 23.1 µM (inactive) | 17.2 µM (inactive) | 18.5 µM (inactive) | > 10 µM (inactive) | 18.2 µM (inactive) | 17.3 µM (inactive) | 17.4 µM (inactive) | 16.7 µM (inactive) | 17 µM (inactive) | 13.4 µM (inactive) | 19.1 µM (inactive) | 18.4 µM (inactive) | 18 µM (inactive) | 17.2 µM (inactive) | 16.9 µM (inactive) | – |
| COc1cc(NCC2COc3c(ccc(OC)c3OC)C2=O)c([N+](=O)[O-])cc1OC (stereo not drawn) | > 100 µM (inactive) | > 100 µM (inactive) | > 100 µM (inactive) | 30.8 µM (inactive) | > 100 µM (inactive) | 95.3 µM (inactive) | > 100 µM (inactive) | > 100 µM (inactive) | 54.7 µM (inactive) | > 100 µM (inactive) | > 100 µM (inactive) | > 100 µM (inactive) | 44.3 µM (inactive) | 94 µM (inactive) | > 100 µM (inactive) | 39.3 µM (inactive) | 55.7 µM (inactive) | 15.6 µM (inactive) | 82.4 µM (inactive) | – |
| Nc1nc(NCC2(CO)CC(CCc3ccccc3)C2)cc(=O)[nH]1 (stereo not drawn) | – | > 100 µM (inactive) | > 100 µM (inactive) | > 100 µM (inactive) | > 100 µM (inactive) | > 100 µM (inactive) | > 100 µM (inactive) | – | > 100 µM (inactive) | > 100 µM (inactive) | > 100 µM (inactive) | > 100 µM (inactive) | > 100 µM (inactive) | > 100 µM (inactive) | > 100 µM (inactive) | > 100 µM (inactive) | > 100 µM (inactive) | > 100 µM (inactive) | > 100 µM (inactive) | > 100 µM (inactive) |
| CCCCCCCCCCCCOC1C(COCCN2CCCCC2)OC2OC(C)(C)OC21 (stereo not drawn) | 1.76 µM (inactive) | 1.53 µM (inactive) | 1.82 µM (inactive) | < 0.01 µM (active) | 1.73 µM (inactive) | 2 µM (inactive) | 1.63 µM (inactive) | 2.12 µM (inactive) | 1.66 µM (inactive) | 1.77 µM (inactive) | 4.3 µM (inactive) | 1.74 µM (inactive) | 1.58 µM (inactive) | 1.75 µM (inactive) | 6.58 µM (inactive) | 1.73 µM (inactive) | 1.59 µM (inactive) | 1.73 µM (inactive) | – | – |
| O=C1OCC2OC(=O)c3cc(O)c(O)c(O)c3-c3c(O)c(O)c(O)c4c3C(=O)OC(C2OC(=O)c2cc(O)c(O)c(O)c2-c2c1cc(O)c(O)c2O)C1OC(=O)c2c-4c(O)c(O)c(O)c2[C@@H]1C(O)C(O)C(O)C(O)CO (stereo partly drawn) | – | 7.11 µM (inactive) | 49.1 µM (inactive) | 22.5 µM (inactive) | 13.6 µM (inactive) | 27.9 µM (inactive) | 17.8 µM (inactive) | 16.5 µM (inactive) | 15.7 µM (inactive) | 19.5 µM (inactive) | 22.2 µM (inactive) | 19.4 µM (inactive) | 14.1 µM (inactive) | 20.7 µM (inactive) | 16.4 µM (inactive) | 3.82 µM (inactive) | 18.8 µM (inactive) | 17.4 µM (inactive) | 16.6 µM (inactive) | 18.2 µM (inactive) |
| NCC(O)CSP(=O)(O)O (stereo not drawn) | – | > 100 µM (inactive) | > 100 µM (inactive) | > 100 µM (inactive) | > 100 µM (inactive) | > 100 µM (inactive) | > 100 µM (inactive) | > 100 µM (inactive) | > 100 µM (inactive) | > 100 µM (inactive) | > 100 µM (inactive) | > 100 µM (inactive) | > 100 µM (inactive) | > 100 µM (inactive) | > 100 µM (inactive) | > 100 µM (inactive) | > 100 µM (inactive) | > 100 µM (inactive) | > 100 µM (inactive) | > 100 µM (inactive) |
| O=C(Nc1nn(C(=O)c2ccc(Cl)cc2)c(=O)s1)c1ccc(Cl)cc1 | – | > 100 µM (inactive) | > 100 µM (inactive) | > 100 µM (inactive) | > 100 µM (inactive) | > 100 µM (inactive) | > 100 µM (inactive) | > 100 µM (inactive) | > 100 µM (inactive) | > 100 µM (inactive) | > 100 µM (inactive) | > 100 µM (inactive) | > 100 µM (inactive) | > 100 µM (inactive) | > 100 µM (inactive) | > 100 µM (inactive) | > 100 µM (inactive) | > 100 µM (inactive) | > 100 µM (inactive) | > 100 µM (inactive) |
| Nc1n[nH]c2nc3ccc(C(F)(F)F)cc3nc12 | – | 35.3 µM (inactive) | 21.1 µM (inactive) | 49.4 µM (inactive) | 31.5 µM (inactive) | 28.5 µM (inactive) | 33.3 µM (inactive) | 25.1 µM (inactive) | 16 µM (inactive) | 19.3 µM (inactive) | 33.4 µM (inactive) | 21.8 µM (inactive) | 48.9 µM (inactive) | 25.9 µM (inactive) | 30.5 µM (inactive) | 15.3 µM (inactive) | 20.3 µM (inactive) | 21 µM (inactive) | 42.6 µM (inactive) | 25.1 µM (inactive) |
| O=C(CC(=O)Nc1cccc(C(=O)O)c1)Nc1cccc(C(=O)O)c1 | > 100 µM (inactive) | > 100 µM (inactive) | > 100 µM (inactive) | – | > 100 µM (inactive) | > 100 µM (inactive) | > 100 µM (inactive) | > 100 µM (inactive) | > 100 µM (inactive) | > 100 µM (inactive) | > 100 µM (inactive) | > 100 µM (inactive) | > 100 µM (inactive) | > 100 µM (inactive) | > 100 µM (inactive) | > 100 µM (inactive) | > 100 µM (inactive) | > 100 µM (inactive) | > 100 µM (inactive) | > 100 µM (inactive) |
| CC(C)NC(=O)OCC[S+]([O-])c1c(Cl)c(Cl)nn1C (stereo not drawn) | > 100 µM (inactive) | 38.7 µM (inactive) | 28.5 µM (inactive) | 48.9 µM (inactive) | 37.6 µM (inactive) | > 100 µM (inactive) | 21.1 µM (inactive) | 46.1 µM (inactive) | 21.2 µM (inactive) | 36.2 µM (inactive) | 42.8 µM (inactive) | > 10 µM (inactive) | 40.9 µM (inactive) | > 100 µM (inactive) | > 100 µM (inactive) | 29.4 µM (inactive) | 18.5 µM (inactive) | 24.9 µM (inactive) | 49.8 µM (inactive) | – |
| O=C(O)CC(C(=O)O)C1c2ccccc2-c2ccccc21 (stereo not drawn) | – | > 100 µM (inactive) | > 100 µM (inactive) | 37.5 µM (inactive) | 66.1 µM (inactive) | > 100 µM (inactive) | > 100 µM (inactive) | 92.9 µM (inactive) | 81.8 µM (inactive) | > 100 µM (inactive) | > 100 µM (inactive) | > 100 µM (inactive) | > 100 µM (inactive) | > 100 µM (inactive) | 56.4 µM (inactive) | 34.2 µM (inactive) | 47.9 µM (inactive) | > 100 µM (inactive) | > 100 µM (inactive) | – |
| O=C(/C=C/c1ccccc1)CCc1c(O)c2ccccc2oc1=O | > 100 µM (inactive) | 71.9 µM (inactive) | > 100 µM (inactive) | – | > 100 µM (inactive) | > 100 µM (inactive) | > 100 µM (inactive) | > 100 µM (inactive) | 89.1 µM (inactive) | 53.8 µM (inactive) | > 100 µM (inactive) | > 100 µM (inactive) | 80.5 µM (inactive) | 43.9 µM (inactive) | 83.8 µM (inactive) | 60.4 µM (inactive) | 74.3 µM (inactive) | > 100 µM (inactive) | 76.9 µM (inactive) | 18 µM (inactive) |
